Laboratory results: patent publication US11596623B2, “Methods for treating virus infection or proliferation” (HOWARD UNIVERSITY, priority 2018, dated 2023)

Key:
[1] = system: HSV1-Luc (R8411); experiment: HSV1-Luc bioluminescence luciferase assay in HEp-2 cells; assay type: cell-based, HSV-1; details: 10 μM
Method: (A) Hep-2 cells were incubated with the indicated compounds in the presence of HSV1-Luc virus at a concentration of 4×10^6 pfu/ml media. (B) Quantification of the luciferase signal from the samples in panel (A). Signals from three replicates from two separate experiments were combined to generate the average and the standard error bar.
(§1) To 80-90% confluent HEp-2 cells, HSV-1-Luc (R8411) are added at a concentration of 2×10e^6 pfu/ml along with indicated concentration of inhibitor compounds. After the described incubation period, luciferase activity is evaluated from bioluminescence images acquired by a Perkin Elmer IVIS Spectrum Imaging system immediately after adding luciferase substrate (D-luciferin, Gold Bio Technology) at a concentration of 400 μg/mL in medium. Bioluminescence intensity in different wells is quantified in units of photons per second per centimetre squared per steradian (p/s/cm^2/sr) by drawing a polygonal region of interest over the signals in images using Living Image 3.0 software (Caliper Life Sciences).
as §1, with “cells, HSV1-Luc” for “cells, HSV-1-Luc”, “(R8411) was” for “(R8411) are”, “activity was” for “activity is”, “wells was” for “wells is”, “per centimeter” for “per centimetre”
To visualize the effect of the drugs on the proliferation of HSV-1, a luciferase tagged HSV-1 F strain expressing luciferase (R8411 mutant) under the control of ICP27 promoter was obtained [Horsburgh B C, Hubinette M M, Tufaro F. Genetic manipulation of herpes simplex virus using bacterial artificial chromosomes. Methods Enzymol. 1999; 306:337-52]. […] The same samples after incubation of 48 h were used to assay for HSV-1 ICP0 and RACK1 protein expression (B of FIG. 5). Depletion of RACK1 by the compounds correlated with the depletion of the viral ICP0 protein confirming earlier results shown in B of FIG. 3.

[2] = biological target: T1, recombinant RACK1A protein (Oryza sativa subsp. japonica, UniProt Q6L4F8); experiment: Surface Plasmon Resonance (SPR) binding assay; design: species or system rice; details: immobilized recombinant RACK1A, KD50=kd/ka
T1 construct: His tag (C); made in house; host or cells: E. coli BL21(DE3)
Method: SD-29 (left panel) and SD-29-12 (right panel) were separately injected three times on the CM5 chip at 0, 1.56 μM, at 3.13 μM, 6.25 μM, 12.5 μM, 25 μM, 50 μM, and 100 μM (top sensor) concentrations (left panel) and at 3.13 μM, 6.25 μM, 12.5 μM, 25 μM, 50 μM, and 100 μM (top sensor) concentrations (right panel).
To obtain in vitro confirmation of the binding of the isolated compounds to the purified RACK1 protein, the small compound SD-29 and its structural analog SD29-12 were evaluated for their binding potential with the recombinant RACK1A proteins using the Surface Plasmon Resonance (SPR) chip. SPR experiments were carried out with a Biacore T200 equipped with a CM5 sensor chip. Briefly, recombinant RACK1A cysteine-tagged protein was immobilized on flow cell (FC) 2 in HEPES buffered saline (10 mM Hepes, pH 7.4, and 150 mM NaCl, 3 mM CaCl2)) using a thiol-coupling kit according to the manufacturer's protocol, resulting in immobilization levels of 4580 response units (RU). FC1 was only activated and inactivated and used as a reference. SD-29 stock solution was diluted to a final concentration of 100, 75, 50, 25, 10 μM and 1 μM injected in 10 mM Hepes, 150 mM NaCl, 3 mM CaCl2), 1% DMSO, and 0.5% P20. Each injection was repeated three times for 60 s. […] KD50 is calculated by the equation: KD50=kd/ka; kd—dissociation rate constant, ka—association rate constant. […]

[3] = system: RACK1A protein; experiment: RACK1 protein expression under salt stress, western blot; assay type: in vivo; details: Arabidopsis lysates
Source text: The abundant leaf protein Rubisco large subunit (RbcL) was used as a loading control for the blot. The 37 kD RACK1 band was absent from the genetic knockout of RACK1 plants (double mutant-rack1ab lane).
The reported positive expression of RACK1A protein under salt stress condition in Arabidopsis has led us to examine the RACK1A expression in the presence and absence of the inhibitor compounds during salt stresses. We determined that the RACK1A protein expression was specifically modulated by the inhibitor compounds when the lysates with salt or without salt in the presence and absence of the small compounds were probed with an antibody raised by using the full length RACK1A protein as antigen (Agrisera, Vännäs, Sweden, FIG. 2C). […] However, whether the effect of SD29-12 is Arabidopsis salt stress specific condition needs further experimental evidence. As the antibody cross-reacts with all three RACK1 isoforms in Arabidopsis, we used the double knockout (rack1ab) as a negative control on the blot (triple mutant is lethal at the early seedling stage). The large subunit of the abundant leaf protein rubisco (RbcL) was used as loading control for this blot. As the results support the in-silico based prediction, we set out to investigate the effect of the compounds on the mammalian RACK1 based virus proliferation.

[4] = system: HSV-1 ICP0; experiment: Real-time RT-PCR of HSV-1 ICP0 transcript in HEp-2 cells; assay type: cell-based; details: 12 and 24 hpi, versus DMSO
Source text: The total transcript levels were quantified using actin expression as an internal control. The cDNA obtained immediately after the virus and drug transfection(s) was set as a baseline value. The normalized expression values were transformed to the log 10 value. The data plot represents mean t standard error calculated from three replicates.
Following instructions of the manufacturers, total RNA was isolated using Tri Reagent® (Ambion, Inc., Austin, Tex.). To quantitatively examine the mRNA level of HSV-1 ICP0 from the infected cells, real-time RT-PCR was undertaken using the QuantiTect SYBR Green RT-PCR kit (QIAGEN, Valencia, Calif.). […] Fluorescence (captured at 80° C.) was determined to be absent from the signal generated by primer dimers. Data were collected and recorded by the BIORAD CFX Manager software. The relative quantity of the ICP0 transcripts at the indicated time points was normalized to the relative quantity of the reference gene actin at the same time points and then the log10 copy number of the normalized RNA transcripts were calculated and presented on a bar chart. A melting temperature curve analysis was obtained by measuring (after the amplification cycles) the fluorescence during a period of warming from 60° C. to 95° C. […]

[5] = system: HSV-1; experiment: Plaque formation unit (pfu) assay; assay type: cell-based
Method: The viral plaque assay was performed as previously described [Tang Q, Li L, Ishov A M, Revol V, Epstein A L, Maul G G. Determination of minimum herpes simplex virus type 1 components necessary to localize transcriptionally active DNA to ND10. J Virol. 2003; 77:5821-28.] with slight modifications. The HSV-1 strain 17 was diluted serially in a volume of 1 mL. Then 300 ul of the virus was added onto confluent HEp-2 cell monolayers in 12-well plates; each dilution had 3 wells. After adsorption for 2 h, the medium was removed and the cells were washed twice with serum-free DMEM and overlaid with phenol-free DMEM containing 5% FCS, 0.5% low-melting point agarose (GIBCO), and 1% penicillin-streptomycin. The cells were incubated at 37° C. for 48 hours. Neutral red was added on the agarose to stain the live cells. The plaques were counted and reported as pfu per mL. Mean pfu was determined after averaging the number of pfu from different dilutions. Student's t-tests were used to statistically analyze differences between the groups; a p-value lower than 0.005 was used as the threshold for a significant difference.
To assess the efficacy of SD-29 on the HSV-1 proliferation, a plaque assay was performed. We wanted to quantitatively assess whether SD-29 could inhibit viral replication. Because HSV-1 was able to enter cultured HEp-2 cells, we evaluated whether this entry led to productive virus replication.
In Table 1, confluent monolayers of HEp-2 cells were infected with serially diluted HSV-1 virus and were fixed and Giemsa stained at 0, 6, 12, and 24 hr post infection. The numbers of plaques were visualized. The number of plaques formed post infection decreased in the presence of SD-29 in a time-dependent manner.

[6] = system: HEp-2 cells; experiment: Trypan blue exclusion cell viability; assay type: cell-based; details: 24-hour treatment
Method: In order to assess whether the compounds are producing any toxicity that can led to the cell deaths, we evaluated the cell viability by the trypan blue exclusion method. As long-term inhibition of RACK1 expression has been reported to cell cycle arrest, we limited our experimental treatments to 24 h and evaluated the cell viability of almost full confluent cells after 24 h of compound treatment.
In table 2, the viability of cells was measured with Trypan blue exclusion assay in a Cellometer (Nexcelom, Lawrence, Mass.). The percentage survival of the compound treated cells was evaluated along with the DMSO treated cells. The values represent the mean±SE of three separate well based replicates.

T1 sequence (Q6L4F8 whole entry): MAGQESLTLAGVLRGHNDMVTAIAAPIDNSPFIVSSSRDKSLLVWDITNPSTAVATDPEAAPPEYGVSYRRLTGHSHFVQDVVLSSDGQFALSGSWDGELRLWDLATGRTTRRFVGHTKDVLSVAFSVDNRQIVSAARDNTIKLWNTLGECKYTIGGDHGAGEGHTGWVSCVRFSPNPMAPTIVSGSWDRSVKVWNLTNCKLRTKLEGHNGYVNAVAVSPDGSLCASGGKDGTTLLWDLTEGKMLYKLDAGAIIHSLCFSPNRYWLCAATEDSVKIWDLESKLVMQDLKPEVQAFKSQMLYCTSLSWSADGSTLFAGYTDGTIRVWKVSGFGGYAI

Nc1nc2c(ncn2COCCO)c(=O)[nH]1 [acyclovir, reference compound]
HSV1-Luc proliferation [1]: showed inhibition of the HSV1-Luc proliferation

COc1ccc(-c2nnc(SCC(=O)O)n2N)cc1 [SD29-12]
Kd [2]: 58 µM | RACK1 protein expression under salt stress [3]: not | ICP0 mRNA level [4]: essentially showed the same level of ICP0 mRNA | Plaque formation unit ([5]; 0 hpi): 0 ± 0 PFU/mL | Plaque formation unit ([5]; 6 hpi): 3.8 ± 0.07 × 10^2 PFU/mL | Plaque formation unit ([5]; 12 hpi): 3.6 ± 0.04 × 10^3 PFU/mL | Plaque formation unit ([5]; 24 hpi): 2.6 ± 0.03 × 10^6 PFU/mL | HEp-2 Cell viability, Mean ([6]; 10 μM): 92.7% | HEp-2 Cell viability, Mean ([6]; 100 μM): 97.7%
